Source: PMC10038264, “A new family of glutamate-gated chloride channels in parasitic sea louse Caligus rogercresseyi: A subunit refractory to activation by ivermectin is dominant in heteromeric assemblies” (PLOS Pathogens, 2023)

What was measured:
[1] = test system: CrGluCl-B Y361F mutant; test: Voltage-clamp of oocytes expressing CrGluCl-B Y361F mutant; type: cell-based, Caligus rogercresseyi; details: 1 μM ivermectin, one-sample t-test
Description: (§1) To identify putative GluCl subunits, we queried the NCBI Transcriptome Shotgun Assembly Sequence (TSA) Database for “glutamate-gated chloride channel Caligus”. The obtained sequences were translated and BLASTed (tBLASTn) against the C. rogercresseyi genome (WGS, BioProject ID 280098, NCBI) and against transcripts of L. salmonis database (https://licebase.org/). Primers for each of the putative new subunit found were designed to span the full length of the open reading frame (ORF) for each of them (B-E) (S1 Table, and arrows in Fig 1). Complete cDNAs were generated by RT-PCR from adult C. rogercresseyi samples from which putative full-length peptide sequences of CrGluCl-B, CrGluCl-C, CrGluCl-D and CrGluCl-E were obtained. Each PCR product was cloned in pGEM-T easy vector and sequenced. […]
(§2) Current measurements at controlled membrane potentials (voltage-clamp experiments) were performed using two intracellular microelectrodes in defolliculated Xenopus oocytes previously microinjected with 20 ng of cRNA. […] The oocytes were recorded in a chamber (Model RC-1Z, Warner Instrumenst, USA) under continuous superfusion. […] Currents were recorded continuously during the experiments without interruptions for solution changes. […] The signal filtered at 1 kHz was acquired with a Digidata 1440A Analog-to-Digital Converter and analyzed with Axon pClamp 10.6 software. […]

[2] = test system: CrGluCl-B M340T mutant; test: Voltage-clamp of oocytes expressing CrGluCl-B M340T mutant; type: cell-based, Caligus rogercresseyi; details: 1 μM ivermectin
Description: as §1, §2

[3] = test system: coexpressed CrGluCl-D:CrGluCl-B; test: Voltage-clamp of oocytes coexpressing CrGluCl-D and CrGluCl-B; type: cell-based, Caligus rogercresseyi; details: B:D ratio 1:1
Method: (§3) Adult female Xenopus laevis frogs were anaesthetized by immersion in a1g/L solution tricaine (Ethyl 3-aminobenzoate methanesulfonate, Sigma) buffered to pH 7 with NaHCO3. Surgery was performed 30–40 min later, once the frog was completely anaesthetized judging by loss of reflexes. Ovarian lobes were removed through 1 cm abdominal incision and then kept at 16°C in Barth’s modified solution containing (in mM): 88 NaCl, 1 KCl, 0.4 CaCl2, 0.3 Ca (NO3)2, 0.8 MgSO4, 2.4 NaHCO3, 5 Hepes, 2.5 sodium pyruvate, 100 μg/ml gentamicin sulfate, 100 U/ml penicillin, 100 μg/ml streptomycin, 250 μg/ml amphotericin B, 0.22μm filtered and adjusted to pH 7.5 with Tris-Base. Osmolarity was brought to 220 mOsm with saccharose. […]
as §2

[4] = test system: CrGluCl-B Q279E-Y361F mutant; test: Voltage-clamp of oocytes expressing CrGluCl-B Q279E-Y361F double mutant; type: cell-based, Caligus rogercresseyi; details: 1 μM ivermectin, one-sample t-test
Description: as §1, §2

[5] = test system: coexpressed CrGluCl-D:CrGluCl-A; test: Voltage-clamp of oocytes coinjected with CrGluCl-D and CrGluCl-A; type: cell-based, Caligus rogercresseyi; details: D:A ratio 1:1
Method: as §3, §2

[6] = test system: AgGluCl; set-up: method as in PMID 7935817, PMID 8702744, PMID 25994631; details: read-out: EC50 glutamate; cited from earlier work
[7] = molecular target: CrGluCl-A (Caligus rogercresseyi, UniProt A0A1W6LZ70); test: Two-electrode voltage-clamp of Xenopus oocytes expressing CrGluCl-A; type: cell-based; details: CrGluCl-A alone
Method: Adult female Xenopus laevis frogs were anaesthetized by immersion in a1g/L solution tricaine (Ethyl 3-aminobenzoate methanesulfonate, Sigma) buffered to pH 7 with NaHCO3. Surgery was performed 30–40 min later, once the frog was completely anaesthetized judging by loss of reflexes. Ovarian lobes were removed through 1 cm abdominal incision and then kept at 16°C in Barth’s modified solution containing (in mM): 88 NaCl, 1 KCl, 0.4 CaCl2, 0.3 Ca (NO3)2, 0.8 MgSO4, 2.4 NaHCO3, 5 Hepes, 2.5 sodium pyruvate, 100 μg/ml gentamicin sulfate, 100 U/ml penicillin, 100 μg/ml streptomycin, 250 μg/ml amphotericin B, 0.22μm filtered and adjusted to pH 7.5 with Tris-Base. Osmolarity was brought to 220 mOsm with saccharose. The oocytes were manually defolliculated on the same day of extraction and the following day 20 ng cRNA in nuclease-free water was injected into stage V-VI oocytes using a FemtoJet microinjector (Eppendorf). Finally, the injected oocytes were stored in 96 well plates containing Barth’s modified solution and kept at 16°C until experiment day.
Current measurements at controlled membrane potentials (voltage-clamp experiments) were performed using two intracellular microelectrodes in defolliculated Xenopus oocytes previously microinjected with 20 ng of cRNA. Voltage-clamp recording was performed at room temperature using a TURBO TEC-10CX amplifier (npi electronic GmbH, Tamm, Germany) and PClamp 10.6 software (Axon Instruments, USA), 1 to 4 days after oocyte injection. The oocytes were recorded in a chamber (Model RC-1Z, Warner Instrumenst, USA) under continuous superfusion. […] Reference was an Ag-AgCl electrode connected to the bath via a 3 M KCl in 3% agar bridge. Currents were recorded continuously during the experiments without interruptions for solution changes. […] The signal filtered at 1 kHz was acquired with a Digidata 1440A Analog-to-Digital Converter and analyzed with Axon pClamp 10.6 software. […]

Chain of CrGluCl-A (A0A1W6LZ70 entry or part of it): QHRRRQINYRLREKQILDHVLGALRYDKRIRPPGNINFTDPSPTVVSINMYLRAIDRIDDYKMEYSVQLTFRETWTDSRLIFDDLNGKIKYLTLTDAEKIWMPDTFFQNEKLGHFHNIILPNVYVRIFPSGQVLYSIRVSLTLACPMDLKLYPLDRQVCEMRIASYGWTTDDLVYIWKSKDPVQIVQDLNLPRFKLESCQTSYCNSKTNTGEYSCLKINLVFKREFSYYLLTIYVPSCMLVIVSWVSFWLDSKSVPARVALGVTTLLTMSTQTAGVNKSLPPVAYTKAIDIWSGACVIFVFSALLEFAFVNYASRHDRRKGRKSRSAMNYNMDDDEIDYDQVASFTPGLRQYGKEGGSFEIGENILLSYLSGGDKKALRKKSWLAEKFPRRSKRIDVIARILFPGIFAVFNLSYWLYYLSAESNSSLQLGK

Row | Compound | effect of ivermectin on current [1] | effect of ivermectin on current [2] | nH (ivermectin) [3] | EC50 ([3]; read-out: EC50 ivermectin (Iver response to activation)) [nM] | effect of ivermectin on current [4] | Iver response to activation [5] | EC50 [6] [µM] | nH (glutamate) ([7]; 60 mV) | EC50 ([7]; EC50 Glutamate, currents at 60 mV, Hill fit) [µM]
1 | ivermectin | small but significant effects | no effect | 2.6 ± 1.1 | 278 ± 53 | small but significant effects | Sensitive |  |  | 
2 | N[C@@H](CCC(=O)O)C(=O)O [glutamate, L-glutamate] |  |  |  |  |  |  | 30 | 1.65 ± 0.63 | 7.2 ± 2.7
